Experimental data taken from patent US20230348538A1, “METHOD FOR TREATMENT OF DRY EYE COMPRISNG APPLYING P55PIK INHIBITOR” (Wuhan Yicheng Biological Technology Co., Ltd., priority 2020, published 2023).

How the values were obtained:
[1] = tested on: dry eye model induced by 0.2% benzalkonium chloride solution; test: Benzalkonium chloride dry eye model: Schirmer's test I (phenol red thread); format: in vivo, C57BL/6 mice
Description: The healthy male C57BL/6 mice were kept in a controlled environment with a temperature of (25±1)° C., a relative humidity of (25±5)%, and light-dark cycles (9 AM-9 PM) with simulated dawn and dusk. Forty mice (80 eyes) were treated with 5 μL of 0.2% benzalkonium chloride solution twice a day (8:00 AM and 6:00 PM) for 14 days to induce dry eye symptoms, while the remaining ten mice (20 eyes) received no treatment and served as a baseline control. Modeling was carried out on the 15th day; and the dry eye rat models were screened based on tear film break-up time (BUT), fluorescein sodium staining of corneal, and Schirmer's test I for tear secretion. To assess tear secretion, Schirmer's test I was performed on mice at 3 PM each day using the phenol red thread; general anesthesia was induced by intraperitoneal injection of pentobarbital (50 mg/kg body weight); the lower eyelid was grasped and gently pulled down; front end of the phenol red thread, folded 1 mm, was placed on the conjunctival surface near the outer canthus of the lower eyelid for 15 seconds; the length of the red-stained portion of the phenol red thread was measured and recorded; the eyelid was then closed after the Schirmer's test I to avoid excessive exposure; each eye was tested twice, and the average length of the red-stained portion of the phenol red thread was recorded as the final result. […] Group A, the drug treatment group, was treated with the eye drops comprising 0.1% TAT-[…] peptide, four times a day; Group B, the solvent control group, was treated with eye drops without TAT-[…] peptide, four times a day; and Group C, the blank control group, received no treatment; on days 1, 4, and 7 after treatment, BUT, Schirmer's test I, and fluorescein sodium staining were performed; on the 7th day, the paraffin sections of the conjunctival fornix was stained by PAS stain; and the number of PAS-positive goblet cells was counted.

[2] = tested on: rabbit model of dry eye (0.1% benzalkonium chloride); test: Rabbit model of dry eye: conjunctiva appearance and fluorescein staining; format: in vivo, New Zealand white rabbits
Description: (§1) 1.2.1 Grouping: thirty New Zealand white rabbits were randomly divided into three groups, each comprising 10 rabbits: a blank control group, a solvent control group, and a drug treatment group.
(§2) 1.2.2 Preparation of a rabbit model of dry eye: the right eye of each rabbit was used to establish a dry eye rabbit model by administering 0.1% benzalkonium chloride eye drops twice a day for 4 weeks. After 4 weeks, the dry eye rabbit model was evaluated, with the conjunctiva appearing dry, tear production being reduced, and Schirmer test values being less than 10 mm/5 min (compared to the control group, where all Schirmer test values were above 10 mm).
(§3) 1.2.3 Drug preparation and usage: a liquid formulation of 0.1% TAT-N16 peptide eye drops were prepared by dissolving the peptide raw materials in physiological saline according to a weight ratio of 0.1%. The eye drops comprising 0.1% TAT-N16 peptide were administered 2 drops, 3 times a day for 7 days. The blank control group received no treatment, and the solvent control group received physiological saline eye drops 2 drops, 3 times a day for 7 days. The normal eye group served as a normal control group.
(§4) 1.3 Specimen collection and animal testing were conducted by the same individual. The examination time, location, illumination brightness, and temperature were consistent throughout the experiment. The rabbit conjunctiva appearance, fluorescein staining, tear film break-up time were analyzed using a slit lamp before and on days 4 and 7 after treatment; additionally, the Schirmer's test and conjunctival impression cytology (CIC) were carried out.

[3] = tested on: rabbit model of dry eye (0.1% benzalkonium chloride); test: Rabbit model of dry eye: Schirmer's test; format: in vivo, New Zealand white rabbits
Description: as §1, §2, §3
as §4, with “The examination time, location, illumination brightness, and temperature were consistent throughout the experiment.” left out
1.3.1 Schirmer's test: the corneal surface was anesthetized with oxybuprocaine hydrochloride; a cotton swab was used to absorb the fluid around the eyelid; the Schirmer tear test strips were placed at the junction of the ⅓ posterior-middle of the lower conjunctival sac of the New Zealand white rabbit, with the remaining part hanging on the skin surface; the New Zealand white rabbit was then instructed to close its eyes, and after 5 minutes, the length of wet portion of the Schirmer tear test strips was measured.

[4] = tested on: dry eye model induced by 0.2% benzalkonium chloride solution; test: Benzalkonium chloride dry eye model: conjunctival goblet cells (PAS staining); format: in vivo, C57BL/6 mice
Description: The healthy male C57BL/6 mice were kept in a controlled environment with a temperature of (25±1)° C., a relative humidity of (25±5)%, and light-dark cycles (9 AM-9 PM) with simulated dawn and dusk. Forty mice (80 eyes) were treated with 5 μL of 0.2% benzalkonium chloride solution twice a day (8:00 AM and 6:00 PM) for 14 days to induce dry eye symptoms, while the remaining ten mice (20 eyes) received no treatment and served as a baseline control. […] Group A, the drug treatment group, was treated with the eye drops comprising 0.1% TAT-[…] peptide, four times a day; Group B, the solvent control group, was treated with eye drops without TAT-[…] peptide, four times a day; and Group C, the blank control group, received no treatment; on days 1, 4, and 7 after treatment, BUT, Schirmer's test I, and fluorescein sodium staining were performed; on the 7th day, the paraffin sections of the conjunctival fornix was stained by PAS stain; and the number of PAS-positive goblet cells was counted.

TAT-N16 peptide: cell-penetrating artificial peptide, sequence SEQ ID NO: 2, constructed by linking the peptide N16 to a TAT sequence; P55PIK inhibitor (YGRKKRRQRRRMMPYSTELIFYIEMDP)
Tear secretion volume compared with blank control group and solvent control group ([1]; 4th day of treatment): significantly higher
Schirmer's test I values (x ± s) ([1]; 4 days of treatment, 0.1% eye drops four times a day): 5.14 ± 0.29 mm
Tear secretion volume compared with blank control group and solvent control group ([1]; 7 days of continuous treatment, P<0.05): significantly higher
Schirmer's test I values (x ± s) ([1]; 7 days of treatment, 0.1% eye drops four times a day): 5.88 ± 0.63 mm
Schirmer's test I values (x ± s) ([1]; before treatment (baseline), drug treatment group, 0.1% eye drops): 4.19 ± 0.24 mm
Appearance of the rabbit conjunctiva ([2]; after 4 days of treatment): improved
Dot-like and patchy fluorescein staining on the conjunctiva ([2]; after 4 days of treatment): decreased
Appearance of the rabbit conjunctiva ([2]; after 7 days of treatment): appeared moist
Fluorescein staining on the conjunctiva ([2]; after 7 days of treatment): no staining was observed
Schirmer' test values ([3]; 0 d / before treatment (baseline), drug treatment group): 8.38±0.57 mm
Schirmer' test values ([3]; 4 d, 0.1% eye drops 2 drops, 3 times a day): 12.02±1.21 mm
Schirmer' test values ([3]; 7 d, 0.1% eye drops 2 drops, 3 times a day): 16.31±1.45 mm
Density of conjunctival goblet cells compared with blank control group and solvent control group ([4]; 7 days of continuous treatment, P<0.01, FIG. 4): significantly higher
Number of conjunctival goblet cells (PAS-stained paraffin sections of the conjunctival fornix) ([4]; after treatment with the eye drops): increased significantly
